# Measured values: the supplement of paper PMC7224384
# Columns and labels:
# MDA-MB-453 [1] = test: drug sensitivity score (DSS), single agent (DSS (weighted AUC score)); higher = more sensitive (stronger viability decrease); extreme values may be limits of the assay; conditions: BLU9931 0 nM; 72 h
# How it was run: (§1)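 Cells of the MDA-MB-453 line (2000 per well) were added in medium, with or without 100 nM final FGFR4 inhibitor, to 384-well plates predispensed with FIMM Oncology set compounds at five 10-fold dilutions covering a 10,000-fold range. After 72 h at 37 °C, 5% CO2, CellTiterGlo 2.0 read cellular ATP. Percent viability came from per-plate normalisation to control wells, and the drug sensitivity score was defined as a weighted area under a four-parameter logistic fit.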
# MDA-MB-453 [2] = test: drug sensitivity score (DSS), in combination with BLU9931 (DSS (weighted AUC score)); higher = more sensitive (stronger viability decrease); extreme values may be limits of the assay; conditions: BLU9931 100 nM; 72 h
# How it was run: as §1
Structure (SMILES),drug sensitivity score (MDA-MB-453 [1]),drug sensitivity score (MDA-MB-453 [2])
Cc1ccc(Nc2nccc(N(C)c3ccc4c(C)n(C)nc4c3)n2)cc1S(N)(=O)=O [Pazopanib],2.3,0
CCn1c(-c2nonc2N)nc2c(C#CC(C)(C)O)ncc(OC[C@H]3CCCNC3)c21,13,15
O=c1[nH]c(=O)n([C@H]2C[C@H](O)[C@@H](CO)O2)cc1F [Floxuridine],4.9,2
CC1(C)OCCn2c1nc1c(N3CCOCC3)nc(-c3cnc(N)nc3)nc12 [GDC-0084],16.4,17.4
NC(=S)N/N=C/c1ncccc1N [Triapine],0.1,1.3
Cc1ccc(NS(=O)(=O)c2cccc(C#N)c2)c2[nH]cc(C#N)c12 [E7820],3.3,1.1
COc1cc2c(NC3CCN(C(C)C)CC3)nc(C3CCCCC3)nc2cc1OCCCN1CCCC1 [UNC0638],0,4.9
CCN(CC)CCNC(=O)c1c(C)[nH]c(/C=C2\C(=O)Nc3ccc(F)cc32)c1C [Sunitinib],0.2,0
C/C=C1\NC(=O)[C@H]2CSSCC/C=C/[C@H](CC(=O)N[C@H](C(C)C)C(=O)N2)OC(=O)[C@H](C(C)C)NC1=O [Romidepsin],32,33.3
CO[C@H](C(=O)[C@@H](O)[C@@H](C)O)[C@@H]1Cc2cc3cc(O[C@H]4C[C@@H](O[C@@H]5C[C@@H](O)[C@H](O)[C@@H](C)O5)[C@H](O)[C@@H](C)O4)c(C)c(O)c3c(O)c2C(=O)[C@H]1O[C@H]1C[C@@H](O[C@@H]2C[C@@H](O)[C@@H](O[C@@H]3C[C@](C)(O)[C@H](O)[C@@H](C)O3)[C@@H](C)O2)[C@H](O)[C@@H](C)O1 [Plicamycin],15.7,15.7
CC(=O)Nc1ccc(C(=O)Nc2ccccc2N)cc1 [Tacedinaline],1.3,0.4
Cc1ccc(-n2nc(C(C)(C)C)cc2NC(=O)Nc2ccc(OCCN3CCOCC3)c3ccccc23)cc1 [Doramapimod],2.3,1.8
CC(C)(C)c1cc(NC(=O)Nc2ccc(Oc3ccnc4[nH]c(=O)cnc34)cc2F)n(-c2ccccc2)n1,7.9,6.7
Cc1nc(=O)c2cc(CN(C)c3ccc(C(=O)N[C@@H](CCC(=O)O)C(=O)O)s3)ccc2[nH]1 [Raltitrexed],5.3,3.2
CC[C@H](NC(=O)[C@H](C)NC)C(=O)N1C[C@@H](O)C[C@H]1Cc1c(-c2[nH]c3cc(F)ccc3c2C[C@@H]2C[C@H](O)CN2C(=O)[C@H](CC)NC(=O)[C@H](C)NC)[nH]c2cc(F)ccc12 [Birinapant],10.1,15.8
Cc1cnc(Nc2ccc(OCCN3CCCC3)cc2)nc1Nc1cccc(S(=O)(=O)NC(C)(C)C)c1 [Fedratinib],8.3,6.3
C=C(c1ccc(C(=O)O)cc1)c1cc2c(cc1C)C(C)(C)CCC2(C)C [Bexarotene],0,0
Nc1cc(F)ccc1NC(=O)/C=C/c1cnn(C/C=C/c2ccccc2)c1 [RGFP966],2.6,2.9
CC(C)N(CCCNC(=O)Nc1ccc(C(C)(C)C)cc1)C[C@H]1O[C@@H](n2cc(Br)c3c(N)ncnc32)[C@H](O)[C@@H]1O [SGC0946],0.9,0.1
CN1CCN(CCOc2cc(OC3CCOCC3)c3c(Nc4c(Cl)ccc5c4OCO5)ncnc3c2)CC1 [Saracatinib],1.5,3.6
CN(C)C(=O)c1cc2cnc(Nc3ccc(N4CCNCC4)cn3)nc2n1C1CCCC1 [Ribociclib],1.4,3.6
Clc1ccc(C(c2ccccc2Cl)C(Cl)Cl)cc1 (stereo not given) [Mitotane],0.6,0
CC(C)N(C[C@H]1O[C@@H](n2cnc3c(N)ncnc32)[C@H](O)[C@@H]1O)[C@H]1C[C@@H](CCc2nc3cc(C(C)(C)C)ccc3[nH]2)C1 [Pinometostat],0,0
Cc1[nH]nc(C(F)(F)F)c1Cc1sc2c(c1C(=O)N1C[C@](C)(O)CO1)c(=O)n(C)c(=O)n2C(C)C [AZD3965],0,0
Oc1nc(-c2ccc(C(F)(F)F)cc2)nc2c1CSCC2 [XAV-939],0.2,0.1
CCNC(=O)C[C@@H]1N=C(c2ccc(Cl)cc2)c2cc(OC)ccc2-n2c(C)nnc21 [Molibresib],10,9.8
COc1cc2c(Nc3ccc(Cl)c(Cl)c3F)ncnc2cc1OC[C@@H]1C[C@@H]2CN(C)C[C@@H]2C1 [Tesevatinib],7.6,11.5
O=C(CCNC(=O)c1ccc(OC(F)(F)F)cc1)N[C@@H]1CCCc2ccccc21 [ML390],5.2,3

Structure (SMILES),drug sensitivity score (MDA-MB-453 [1]),drug sensitivity score (MDA-MB-453 [2])
COc1cccc2c1C(=O)c1c(O)c3c(c(O)c1C2=O)C[C@@](O)(/C(CO)=N/NC(=O)CCCCCN1C(=O)C=CC1=O)C[C@@H]3O[C@H]1C[C@H](N)[C@H](O)[C@H](C)O1 [Aldoxorubicin],5.8,5.4
S=C(NCc1ccc2c(c1)OCO2)N1CCN(c2ncnc3c2oc2ccccc23)CC1 [Amuvatinib],3.3,0.3
CCCCNc1ncc(C(=O)NCc2ccc(-n3ccnc3)cc2)c(NC2CCC(O)CC2)n1 (stereo not given) [UNC2881],0,0
CC(C)c1cc(-c2n[nH]c(=O)n2-c2ccc3c(ccn3C)c2)c(O)cc1O [Ganetespib],18.7,18.5
CC[C@@H]1CN(C(=O)NCC(F)(F)F)C[C@@H]1c1cnc2cnc3[nH]ccc3n12 [Upadacitinib],0.9,0
COc1cc2ncnc(Nc3ccc(F)c(Cl)c3)c2cc1OCCCN1CCOCC1 [Gefitinib],6.9,8
Cn1nnc2c(C(N)=O)ncn2c1=O [Temozolomide],0,0
CS(=O)(=O)c1ccc(-c2cnc(N)c(C(=O)Nc3ccccc3)n2)cc1 [VE-821],2,4.7
Nc1cccc2c1CN(C1CCC(=O)NC1=O)C2=O (stereo not given) [Lenalidomide],0,0
CN[C@@H](C)C(=O)N[C@H](C(=O)N1CCC[C@H]1c1nc(C(=O)c2ccc(F)cc2)cs1)C1CCCCC1 [NVP-LCL161],8,8.1
O=C(NOC[C@H](O)CO)c1ccc(F)c(F)c1Nc1ccc(I)cc1F,1.2,1.1
Cn1ncc(Cl)c1-c1cc(C(=O)N[C@H](CN)Cc2cccc(F)c2)sc1Cl [Afuresertib],7.9,8.4
O=C(NC1CCNCC1)c1n[nH]cc1NC(=O)c1c(Cl)cccc1Cl [AT7519],13.2,14.6
CCCOc1ccn2c(C(C)=O)cc(-c3ccccc3S(C)(=O)=O)c2c1 [GSK2801],0,0
Nc1nc(Cl)nc2c1ncn2[C@H]1C[C@H](O)[C@@H](CO)O1 [Cladribine],0,0
CCN(CC)Cc1ccc2cc(COC(=O)Nc3ccc(C(=O)NO)cc3)ccc2c1 [Givinostat],11,10.3
O=C(/C=C/c1cccnc1)NCCCCC1CCN(C(=O)c2ccccc2)CC1 [Daporinad],30.5,28.6
CCN(CC)CCCC(C)Nc1ccnc2cc(Cl)ccc12 (stereo not given) [Chloroquine],7.6,7
COc1ccc(COc2cc3oc(=O)c4cc(C(C)O)ccc4c3cc2OC)cc1 (stereo not given) [Palomid-529],2,0
FC(F)(F)c1ccc(CNc2ccc(Cc3c[nH]c4ncc(Cl)cc34)cn2)cn1 [Pexidartinib],1.2,0.1
O=c1[nH]c(=O)n([C@H]2C[C@H](O)[C@@H](CO)O2)cc1C(F)(F)F [Trifluridine],2.6,1.2
COc1cc2c(N3CCN(C(=O)Nc4ccc(OC(C)C)cc4)CC3)ncnc2cc1OCCCN1CCCCC1 [Tandutinib],0,0
C/C(=C\c1csc(C)n1)[C@@H]1C[C@@H]2O[C@]2(C)CCC[C@H](C)[C@H](O)[C@@H](C)C(=O)C(C)(C)[C@@H](O)CC(=O)N1 [Ixabepilone],5.6,4.1
O=C1Cc2cc(C(=O)NC3C[C@H]4CC[C@@H](C3)N4S(=O)(=O)CC3CCN(CCCC(F)(F)F)CC3)c(Cl)cc2N1 (stereo not given in full),0,0
Cc1cc(OCc2nnc(SC3CCCC3)n2-c2cccnc2)ccc1-c1ccc(S(C)(=O)=O)cc1 [NMS-873],11.4,9.1
CC1(C)CCC(c2ccc(Cl)cc2)=C(CN2CCN(c3ccc(C(=O)NS(=O)(=O)c4ccc(N[C@H](CCN5CCOCC5)CSc5ccccc5)c(S(=O)(=O)C(F)(F)F)c4)cc3)CC2)C1 [Navitoclax],0.3,2.4
O=C1CCc2c(Oc3ccc4c(c3)[C@@H]3[C@H](O4)[C@H]3c3nc4cc(C(F)(F)F)ccc4[nH]3)ccnc2N1 [BGB-283],3.6,1.3
